Data: patent US20050288309A1, “Fungicidal mixtures” (priority 2002, published 2005)

System: Plasmopara viticola
Experiment: Activity against Peronospora of grapevines caused by Plasmopara viticola (protective spray test on potted vines)
Type: in vivo, cultivar Müller-Thurgau
Conditions: individual active compound, untreated control 70% infection
Description: The active compounds, separately or jointly, were prepared as a 10% emulsion in a mixture of 63% by weight of cyclohexanone and 27% by weight of emulsifier and diluted with water to the desired concentration.
Evaluation was carried out by determining the infected leaf areas in percent. These percentages were converted into efficacies. The efficacy (E) is calculated as follows using Abbot's formula: E=(1α/β)·100 • α corresponds to the fungicidal infection of the treated plants in % and • β corresponds to the fungicidal infection of the untreated (control) plants in %
An efficacy of 0 means that the infection level of the treated plants corresponds to that of the untreated control plants; an efficacy of 100 means that the treated plants were not infected.
The expected efficacies of the mixtures of active compounds are determined using Colby's formula [R. S. Colby, Weeds 15, 20-22 (1967)] and compared with the observed efficacies.
Colby's formula: E=x+y−x·y/100 • E expected efficacy, expressed in % of the untreated control, when using the mixture of the active compounds A and B at the concentrations a and b • x efficacy, expressed in % of the untreated control, when using active compound A at the concentration a • y efficacy, expressed in % of the untreated control, when using active compound B at the concentration b
Leaves of potted vines of the cultivar “Müller-Thurgau” were sprayed to runoff point with an aqueous suspension having the concentration of active compound stated below. The suspension or emulsion was prepared from a stock solution comprising 10% of active compound in a mixture consisting of 70% of cyclohexanone, 20% of wetting agent and 10% of emulsifier. The next day, the undersides of the leaves were inoculated with an aqueous zoospore suspension of Plasmopara viticola. The grapevines were then initially placed in a water-vapor-saturated chamber at 24° C. for 48 hours and then in a greenhouse at 20-30° C. for 5 days. After this period of time, the plants were again placed in a humid chamber for 16 hours to promote sporangiophore eruption. The extent of the development of the disease on the undersides of the leaves was then determined visually.

`CC1CCN(c2c(-c3c(F)cc(F)cc3F)c(Cl)nc3ncnn23)CC1` [I, 5-chloro-7-(4-methylpiperidin-1-yl)-6-(2,4,6-trifluorophenyl)-[1,2,4]triazolo[1,5-a]-pyrimidine] was tested, and the “Efficacy in % of the untreated control” value (0.25 ppm in the spray liquor) was 0%, the “Efficacy in % of the untreated control” value (1 ppm in the spray liquor) was 0% and the “Efficacy in % of the untreated control” value (4 ppm in the spray liquor) was 29%.

In the case of `COC(=O)N(OC)c1ccccc1COc1ccn(-c2ccc(Cl)cc2)n1` [II-6, pyraclostrobin, reference compound], the “Efficacy in % of the untreated control” value (1 ppm in the spray liquor) is reported as 29%.
